Drawing on PubChem BioAssay AID248 (DTP/NCI, 2004), this text covers T/C for 23 compounds.

“And” between values parts separate entries of the source, which are not always exact repeats. Identical values can stand only once. Toxic doses and inconclusive results are not listed.

The assay relates to L1210 leukemia ip in BDF1 mice, survival T/C. Nature of the assay: NCI In Vivo Anticancer Drug Screen. Data for tumor model L1210 Leukemia (intraperitoneal) in B6D2F1 (BDF1) mice. Conditions: endpoint: mean survival time, higher = longer survival. The gist of the method: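 Ratio derived from survival: compound-dosed mice over vehicle-dosed mice, all bearing a transplantable tumor.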

The mark [1] stands for this setting: dose: 100.0 mg/kg/injection, schedule: Q01DX001 (ip), vehicle: saline.
[2] abbreviates: dose: 100.0 mg/kg/injection, schedule: Q04DX002 (ip), vehicle: Klucel (hydroxypropylcellulose) (HPC).
Where [3] appears, read: dose: 200.0 mg/kg/injection, schedule: Q04DX002 (ip), vehicle: Klucel (hydroxypropylcellulose) (HPC).
Setting [4] is: dose: 400.0 mg/kg/injection, schedule: Q04DX002 (ip), vehicle: Klucel (hydroxypropylcellulose) (HPC).
Setting [5] is: dose: 50.0 mg/kg/injection, schedule: Q01DX001 (ip), vehicle: saline.
Where [6] appears, read: dose: 200.0 mg/kg/injection, schedule: Q01DX001 (ip), vehicle: saline.
The mark [7] stands for this setting: dose: 400.0 mg/kg/injection, schedule: Q01DX001 (ip), vehicle: saline.
[8] abbreviates: dose: 100.0 mg/kg/injection, schedule: Q04DX003 (ip), vehicle: saline.
[9] abbreviates: dose: 100.0 mg/kg/injection, schedule: Q01DX009 (ip), vehicle: Klucel (hydroxypropylcellulose) (HPC).
Where [10] appears, read: dose: 100.0 mg/kg/injection, schedule: Q04DX003 (ip), vehicle: Klucel (hydroxypropylcellulose) (HPC).
[11] abbreviates: dose: 200.0 mg/kg/injection, schedule: Q01DX009 (ip), vehicle: Klucel (hydroxypropylcellulose) (HPC).
The mark [12] stands for this setting: dose: 200.0 mg/kg/injection, schedule: Q04DX003 (ip), vehicle: Klucel (hydroxypropylcellulose) (HPC).
Where [13] appears, read: dose: 400.0 mg/kg/injection, schedule: Q01DX009 (ip), vehicle: Klucel (hydroxypropylcellulose) (HPC).
[14] abbreviates: dose: 400.0 mg/kg/injection, schedule: Q04DX003 (ip), vehicle: Klucel (hydroxypropylcellulose) (HPC).
Where [15] appears, read: dose: 50.0 mg/kg/injection, schedule: Q01DX009 (ip), vehicle: saline.
Setting [16] is: dose: 100.0 mg/kg/injection, schedule: Q01DX009 (ip), vehicle: saline.
Where [17] appears, read: dose: 100.0 mg/kg/injection, schedule: Q01DX009 (ip), vehicle: saline with Tween-80.
Where [18] appears, read: dose: 200.0 mg/kg/injection, schedule: Q01DX009 (ip), vehicle: saline with Tween-80.

Turning to `NC(=S)NN=C1CCCCCCCCC1`, the T/C under setting [1] is 102 % of control.

With `CC/C(=C(\c1ccccc1)c1ccc(OCCN(C)C)cc1)c1ccccc1`, the T/C is, setting by setting: under setting [2], 95 % of control; under setting [3], 92 % of control; under setting [4], 100 % of control.

Take `O=CC1CC2c3ccccc3C1c1ccccc12` (stereo unspecified): the T/C (dose: 100.0 mg/kg/injection, schedule: Q01DX009 (ip), vehicle: gum acacia) is 106 % of control; the T/C (dose: 100.0 mg/kg/injection, schedule: Q04DX003 (ip), vehicle: gum acacia) was 95 % of control; the T/C (dose: 200.0 mg/kg/injection, schedule: Q01DX009 (ip), vehicle: gum acacia) is 95 % of control; the T/C (dose: 200.0 mg/kg/injection, schedule: Q04DX003 (ip), vehicle: gum acacia) is 92 % of control; the T/C (dose: 400.0 mg/kg/injection, schedule: Q01DX009 (ip), vehicle: gum acacia) was 102 % of control; the T/C (dose: 400.0 mg/kg/injection, schedule: Q04DX003 (ip), vehicle: gum acacia) was 87 % of control.

For `CCCCCCCCC1OC1CCCCCCCC(=O)O` (stereo unspecified), the T/C is 108 % of control (dose: 25.0 mg/kg/injection, schedule: Q04DX002 (ip), vehicle: Klucel (hydroxypropylcellulose) (HPC)); 90 % of control under setting [5]; 101 % of control (dose: 50.0 mg/kg/injection, schedule: Q04DX002 (ip), vehicle: Klucel (hydroxypropylcellulose) (HPC)); 97 % of control under setting [1]; 101 % of control under setting [2]; 101 % of control under setting [6]. In addition, the T/C under setting [7] was 90 % of control.

For `O=C(O)[C@@H]1C[C@@H](O)CN1`, the T/C by setting is: under setting [1], 87 % of control; under setting [6], 100 % of control; under setting [7], 94 % of control.

With `N=C(N)c1ccc(-c2cc3cc(C(=N)N)ccc3s2)cc1`, the T/C under setting [8] is 105 % of control.

As for `COC(=O)c1ccccc1NC(=S)NC(=O)/C=C/c1ccccc1`, the T/C was 94 % of control under setting [9]; 97 % of control under setting [10]; 103 % of control under setting [11]; 95 % of control under setting [12]; 106 % of control under setting [13]; 91 % of control under setting [14].

With `Cc1ccc(NC(=O)N(CCI)N=O)cc1`, the T/C (dose: 17.0 mg/kg/injection, schedule: Q01DX015 (ip), vehicle: carboxymethylcellulose (CMC)) is 110 % of control; the T/C (dose: 58.0 mg/kg/injection, schedule: Q01DX015 (ip), vehicle: carboxymethylcellulose (CMC)) was 161 % of control; the T/C (dose: 88.0 mg/kg/injection, schedule: Q01DX015 (ip), vehicle: carboxymethylcellulose (CMC)) is 157 % of control; the T/C (dose: 133.0 mg/kg/injection, schedule: Q01DX015 (ip), vehicle: carboxymethylcellulose (CMC)) is 92 % of control; the T/C (dose: 177.0 mg/kg/injection, schedule: Q01DX001 (ip), vehicle: carboxymethylcellulose (CMC)) is 121 % of control; the T/C (dose: 200.0 mg/kg/injection, schedule: Q01DX015 (ip), vehicle: carboxymethylcellulose (CMC)) was 111 % of control and 113 % of control. The T/C (dose: 400.0 mg/kg/injection, schedule: Q01DX001 (ip), vehicle: carboxymethylcellulose (CMC)) is 159 % of control.

For `N#Cc1cccc(C[P+](c2ccccc2)(c2ccccc2)c2ccccc2)c1`, the T/C (dose: 12.5 mg/kg/injection, schedule: Q01DX009 (ip), vehicle: Klucel (hydroxypropylcellulose) (HPC)) was 100 % of control; the T/C (dose: 12.5 mg/kg/injection, schedule: Q04DX003 (ip), vehicle: Klucel (hydroxypropylcellulose) (HPC)) was 111 % of control; the T/C (dose: 25.0 mg/kg/injection, schedule: Q01DX009 (ip), vehicle: Klucel (hydroxypropylcellulose) (HPC)) was 102 % of control; the T/C (dose: 25.0 mg/kg/injection, schedule: Q04DX003 (ip), vehicle: Klucel (hydroxypropylcellulose) (HPC)) is 111 % of control; the T/C (dose: 50.0 mg/kg/injection, schedule: Q04DX003 (ip), vehicle: Klucel (hydroxypropylcellulose) (HPC)) was 100 % of control.

Regarding `O=C1CNC(=O)N1`, the T/C under setting [15] was 105 % of control; the T/C under setting [16] was 107 % of control; the T/C under setting [8] is 94 % of control; the T/C (dose: 200.0 mg/kg/injection, schedule: Q01DX009 (ip), vehicle: saline) is 96 % of control; the T/C (dose: 200.0 mg/kg/injection, schedule: Q04DX003 (ip), vehicle: saline) is 100 % of control; the T/C (dose: 400.0 mg/kg/injection, schedule: Q01DX009 (ip), vehicle: saline) was 96 % of control. Moreover, the T/C (dose: 400.0 mg/kg/injection, schedule: Q04DX003 (ip), vehicle: saline) was 98 % of control.

In the case of `Cc1ccc(NC(C(=O)O)c2ccccc2)cc1` (stereo unspecified), the T/C under setting [2] is 104 % of control and the T/C under setting [3] was 111 % of control.

Regarding `COC(=O)C1C2OC3C(OC(=O)C31)C2Br` (stereo unspecified), the T/C is 91 % of control under setting [10], 96 % of control under setting [12] and 102 % of control under setting [14].

As to `CCOc1ccccc1NC(=S)NC1CCCCC1`, the T/C is, setting by setting: under setting [9], 97 % of control; under setting [11], 100 % of control.

As to `COc1ccc(NC(=O)Oc2cccc(C(F)(F)F)c2)c(Cl)c1`, the T/C runs as follows: under setting [17], 96 % of control; under setting [18], 97 % of control; (dose: 400.0 mg/kg/injection, schedule: Q01DX009 (ip), vehicle: saline with Tween-80) 94 % of control.

In the case of `O=C(O)c1ccccc1-c1c2ccc(=O)c(Br)c-2oc2c(Br)c(O)ccc12`, the T/C is 104 % of control under setting [5], 96 % of control under setting [1], 98 % of control under setting [6] and 102 % of control under setting [7].

With `CC1(CCCCCBr)OCCO1`, the T/C reads like this: under setting [9], 97 % of control; under setting [11], 100 % of control; under setting [13], 94 % of control.

For the compound `Nc1nc([Se]c2ccc([N+](=O)[O-])cc2)c2ncn(C3CC(O)C(CO)O3)c2n1` (stereo unspecified), the T/C is, setting by setting: (dose: 100.0 mg/kg/injection, schedule: Q01DX005 (ip), vehicle: saline) 100 % of control; (dose: 200.0 mg/kg/injection, schedule: Q01DX005 (ip), vehicle: saline) 100 % of control.

With `CCOC(=O)CCC[P+](c1ccccc1)(c1ccccc1)c1ccccc1`, the T/C under setting [17] was 107 % of control and the T/C under setting [18] was 113 % of control.

Turning to `CCC1(O)C(=O)OCc2c1c(Br)c(-c1ccccc1)n(C)c2=O` (stereo unspecified), the T/C by setting is: (dose: 25.0 mg/kg/injection, schedule: Q01DX001 (ip), vehicle: saline with Tween-80) 110 % of control; (dose: 50.0 mg/kg/injection, schedule: Q01DX001 (ip), vehicle: saline with Tween-80) 102 % of control; (dose: 200.0 mg/kg/injection, schedule: Q01DX001 (ip), vehicle: saline with Tween-80) 121 % of control.

Take `C(=C/c1ccccn1)/c1ccccc1`: the T/C runs as follows: under setting [2], 100 % of control; under setting [3], 103 % of control; under setting [4], 122 % of control.

In the case of `CC1CN1P(=O)(N1CC1C)N1CC1C` (stereo unspecified), the T/C was 124 % of control (dose: 13.3 mg/kg/injection, schedule: Q01DX009 (ip), vehicle: saline); 124 % of control (dose: 19.0 mg/kg/injection, schedule: Q01DX009 (ip), vehicle: saline); 163 % of control (dose: 66.0 mg/kg/injection, schedule: Q01DX001 (ip), vehicle: saline); 88 % of control (dose: 99.0 mg/kg/injection, schedule: Q01DX009 (ip), vehicle: saline); 159 % of control (dose: 150.0 mg/kg/injection, schedule: Q01DX001 (ip), vehicle: saline).

Take `COc1ccc2c3c1OC1C=CC(O)C4C(C2)N(C)CCC314` (stereo unspecified): the T/C reads like this: under setting [1], 98 % of control; under setting [6], 89 % of control.

Turning to `Nc1ccc([As](=O)(O)O)cc1`, the T/C was 102 % of control (dose: 25.0 mg/kg/injection, schedule: Q01DX009 (ip), vehicle: saline); 102 % of control under setting [15]; 94 % of control and 104 % of control under setting [16]; 91 % of control (dose: 100.0 mg/kg/injection, schedule: Q04DX002 (ip), vehicle: saline); 102 % of control (dose: 200.0 mg/kg/injection, schedule: Q04DX002 (ip), vehicle: saline); 87 % of control (dose: 400.0 mg/kg/injection, schedule: Q04DX002 (ip), vehicle: saline).
